# Reference: ChEMBL document CHEMBL4311997, “Discovery of a potent histone deacetylase (HDAC) 3/6 selective dual inhibitor” (Eur J Med Chem, 2019)
# The source made the active and inactive calls. The calls are words filed in the database; no cut-off is given here.
# What was measured:
# Plasmodium falciparum [1] = assay: microbe, parasite or virus in culture; type: functional, organism-based; details: 3D7, 48 h
# Description: Antimalarial activity against ring stage Plasmodium falciparum 3D7 incubated for 48 hrs by Hoechst 33342 staining based fluorescence based assay
# MCF7 = assay: Antiproliferative activity against human MCF7 cells incubated for 72 hrs by MTT assay; type: functional, cell-based; details: MCF7, 72 h
# [2] = Selectivity index, ratio of EC50 for human MDA-MB-231 cells to IC50 for ring stage Plasmodium falciparum 3D7; type: functional; set-up: reference not given here
# Plasmodium falciparum [3] = assay: microbe, parasite or virus in culture; type: functional, organism-based; details: K1, 48 h
# Description: Antimalarial activity against ring stage Plasmodium falciparum K1 incubated for 48 hrs by Hoechst 33342 staining based fluorescence based assay
# [4] = molecular target: T1, Protein deacetylase HDAC6 (Homo sapiens, UniProt Q9UBN7); assay: Inhibition of human HDAC6 using Arg-His-Lys-Lys (Ac) as substrate incubated for 2 hrs by fluorescence assay
# T1 sequence (Q9UBN7 whole entry): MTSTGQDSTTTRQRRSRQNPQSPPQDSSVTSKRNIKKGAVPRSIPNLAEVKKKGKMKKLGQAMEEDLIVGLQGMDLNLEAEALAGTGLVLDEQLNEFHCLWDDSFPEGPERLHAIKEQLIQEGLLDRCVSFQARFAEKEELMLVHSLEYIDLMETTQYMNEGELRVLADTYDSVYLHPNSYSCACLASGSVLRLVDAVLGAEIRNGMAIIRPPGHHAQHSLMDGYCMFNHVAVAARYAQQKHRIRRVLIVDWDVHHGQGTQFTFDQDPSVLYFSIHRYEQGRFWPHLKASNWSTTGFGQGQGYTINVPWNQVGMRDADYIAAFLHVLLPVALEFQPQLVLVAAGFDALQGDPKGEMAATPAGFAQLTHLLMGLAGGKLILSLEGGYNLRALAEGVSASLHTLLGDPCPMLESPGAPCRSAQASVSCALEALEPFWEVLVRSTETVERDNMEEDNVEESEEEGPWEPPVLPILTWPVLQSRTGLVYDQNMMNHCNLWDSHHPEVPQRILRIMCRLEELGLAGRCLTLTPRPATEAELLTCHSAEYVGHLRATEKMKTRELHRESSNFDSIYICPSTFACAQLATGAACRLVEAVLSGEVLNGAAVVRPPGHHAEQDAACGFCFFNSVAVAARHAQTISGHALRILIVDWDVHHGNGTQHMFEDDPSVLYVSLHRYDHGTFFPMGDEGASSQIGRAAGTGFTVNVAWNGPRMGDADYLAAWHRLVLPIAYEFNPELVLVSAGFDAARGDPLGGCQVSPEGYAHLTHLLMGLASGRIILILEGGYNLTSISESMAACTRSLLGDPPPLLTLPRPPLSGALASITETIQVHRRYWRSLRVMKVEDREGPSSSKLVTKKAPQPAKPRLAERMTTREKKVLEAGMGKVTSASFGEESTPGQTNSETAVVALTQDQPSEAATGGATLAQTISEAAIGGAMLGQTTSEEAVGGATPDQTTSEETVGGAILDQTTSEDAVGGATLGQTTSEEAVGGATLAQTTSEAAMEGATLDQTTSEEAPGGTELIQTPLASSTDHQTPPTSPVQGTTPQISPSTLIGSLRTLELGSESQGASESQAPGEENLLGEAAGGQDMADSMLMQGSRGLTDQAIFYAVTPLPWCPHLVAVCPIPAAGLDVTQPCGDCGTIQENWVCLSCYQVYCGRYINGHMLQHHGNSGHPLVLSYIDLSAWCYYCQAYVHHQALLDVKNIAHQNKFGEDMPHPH
# [5] = Selectivity index, ratio of EC50 for human MDA-MB-231 cells to IC50 for ring stage Plasmodium falciparum K1; type: functional; set-up: reference not given here
# Histone deacetylase 1 = Histone deacetylase 1 (Homo sapiens, UniProt Q13547)
# Description: Inhibition of human HDAC1 using Arg-His-Lys-Lys (Ac) as substrate incubated for 2 hrs by fluorescence assay
# MDA-MB-231 [6] = assay: Antiproliferative activity against human MDA-MB-231 cells incubated for 72 hrs by MTT assay; type: functional, cell-based; details: MDA-MB-231, 72 h
# MDA-MB-231 [7] = assay: Induction of apoptosis in human MDA-MB-231 cells assessed as viable cells at 1 uM incubated for 48 hrs by Annexin V-FITC/PI staining by flow cytometric analysis (reference value: 77%); type: functional; details: MDA-MB-231, 48 h, read-out: Activity
# MDA-MB-231 [8] = assay: Induction of apoptosis in human MDA-MB-231 cells assessed as late apoptotic cells at 1 uM incubated for 48 hrs by Annexin V-FITC/PI staining by flow cytometric analysis (reference value: 3%); type: functional
# MDA-MB-231 [9] = assay: Induction of apoptosis in human MDA-MB-231 cells assessed as early apoptotic cells at 1 uM incubated for 48 hrs by Annexin V-FITC/PI staining by flow cytometric analysis (reference value: 5%); type: functional
# MDA-MB-231 [10] = assay: Induction of apoptosis in human MDA-MB-231 cells assessed as necrotic cells at 1 uM incubated for 48 hrs by Annexin V-FITC/PI staining by flow cytometric analysis (reference value: 15%); type: functional
# [11] = molecular target: Protein deacetylase HDAC6 (Homo sapiens) (UniProt Q9UBN7); assay: Potency index, ratio of IC50 for vorinostat to IC50 for test compound for human HDAC6
# OPM-2 = assay: Antiproliferative activity against human OPM2 cells incubated for 48 hrs by CellTiter-Glo luminescent cell viability assay; type: functional, cell-based; details: OPM-2, 48 h
# KMS-12-BM = assay: Effect on human KMS-12-BM cells assessed as inhibition in H3K9Me2 level at 2 to 10 uM incubated for 24 hrs by Western blot analysis; type: functional, cell-based
# [12] = molecular target: Histone deacetylase 1/2/3 (Homo sapiens, UniProt Q13547+O15379+Q92769); assay: Inhibition of HDAC1/2/3 in human KMS-12-BM cells assessed as increase in Ac-H3 level at 2 to 10 uM incubated for 24 hrs by Western blot analysis; type: cell-based
# Sequence of Histone deacetylase 1 (Q13547 whole entry): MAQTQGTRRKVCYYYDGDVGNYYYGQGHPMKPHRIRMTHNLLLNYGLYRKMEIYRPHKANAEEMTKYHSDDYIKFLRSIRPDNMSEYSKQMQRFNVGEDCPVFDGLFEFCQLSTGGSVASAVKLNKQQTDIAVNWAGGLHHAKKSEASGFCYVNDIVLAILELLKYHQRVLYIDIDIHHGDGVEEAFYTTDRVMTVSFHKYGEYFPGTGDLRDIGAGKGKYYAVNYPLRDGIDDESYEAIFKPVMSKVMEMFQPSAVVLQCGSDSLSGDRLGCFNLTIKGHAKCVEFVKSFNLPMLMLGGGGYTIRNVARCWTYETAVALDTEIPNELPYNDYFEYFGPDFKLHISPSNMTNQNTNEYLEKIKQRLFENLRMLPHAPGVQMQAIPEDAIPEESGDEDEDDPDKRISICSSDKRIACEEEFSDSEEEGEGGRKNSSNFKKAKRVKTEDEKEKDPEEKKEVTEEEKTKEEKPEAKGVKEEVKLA
IC50 (Plasmodium falciparum [1]) [nM],EC50 (MCF7) [nM],IC50 (Plasmodium falciparum [3]) [nM],IC50 [4] [nM],IC50 (Histone deacetylase 1) [nM],EC50 (MDA-MB-231 [6]) [nM],SMILES,Selectivity Index [2],Selectivity Index [5],further results
111,4900,296,7.98,2150,4900,COc1cc2nc(Nc3ccc(NC(=O)CCCCCCC(=O)NO)cc3)nc(NC3CCN(Cc4ccc(F)cc4)CC3)c2cc1OC,44,17,
,2900,,5.9,233,2900,O=C(CCCCCCC(=O)Nc1ccc(Nc2nc(NC3CCN(Cc4ccccc4)CC3)c3sccc3n2)cc1)NO,,,
,,,,,,COc1cccc2c1C(=O)c1c(O)c3c(c(O)c1C2=O)C[C@@](O)(C(=O)CO)C[C@@H]3O[C@H]1C[C@H](N)[C@H](O)[C@H](C)O1 [DOXORUBICIN],,,viability at 1 µM (MDA-MB-231 [7]): 1%; Activity (MDA-MB-231 [8]): 92%; Activity (MDA-MB-231 [9]): 1%; Activity (MDA-MB-231 [10]): 6%
200,12000,878,< 0.5,1030,5100,COc1cc2nc(Nc3ccc(NC(=O)CCCCCCC(=O)NO)cc3)nc(NC3CCN(Cc4ccccc4)CC3)c2cc1OC,26,6,Ratio IC50 [11]: 40
,,,,,,O=C(CCCCCCC(=O)Nc1ccccc1)NO [VORINOSTAT],,,EC50 (OPM-2): 2900 nM
96,4900,489,9.09,3370,4100,COc1cc2nc(Nc3ccc(NC(=O)CCCCCCC(=O)NO)cc3)nc(NC3CCN(Cc4ccccc4Cl)CC3)c2cc1OC,43,8,
152,3300,,,,2900,COc1cc2nc(N3CCCN(C)CC3)nc(NC3CCN(Cc4ccccc4)CC3)c2cc1OC,,,Activity (KMS-12-BM): Active; inhibition [12]: inactive
,7700,,35.5,3080,7000,COc1cc2nc(N3CCN(C(=O)CCCCCCC(=O)NO)CC3)nc(NC3CCN(Cc4ccccc4)CC3)c2cc1OC,,,
